Laboratory results from ChEMBL document CHEMBL1201862, “PubChem BioAssay data set” (2004).
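Cultured in 96-well plates, cells were exposed to test compound for 48 hours across five concentrations. At the GI50, growth is halved.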 The source made the active and inactive calls. No stated cut-off is given here; in the data, active = GI50 up to about 1.1 µM and inactive = higher.

Legend:
Assay in all cases: NCI anticancer screen, dose series, 48 h
[1] = test system: NCI-H23
[2] = test system: SK-MEL-2
[3] = test system: SW-620
[4] = test system: SK-MEL-28
[5] = test system: HT-29
[6] = test system: OVCAR-3
[7] = test system: 786-0
[8] = test system: KM12
[9] = test system: T47D
[10] = test system: SNB-19
[11] = test system: MDA-MB-231
[12] = test system: DU-145
[13] = test system: NCI/ADR-RES
[14] = test system: COLO 205
[15] = test system: A549
[16] = test system: Malme-3M
[17] = test system: UACC-257
[18] = test system: BT-549
[19] = test system: K562
[20] = test system: SF-268
[21] = test system: MDA-N
[22] = test system: SN12C
[23] = test system: IGROV-1
[24] = test system: CAKI-1
[25] = test system: SK-OV-3
[26] = test system: CCRF-CEM
[27] = test system: RPMI-8226
[28] = test system: MDA-MB-435
[29] = test system: RXF 393
[30] = test system: OVCAR-8
[31] = test system: NCI-H226
[32] = test system: SF-295
[33] = test system: SK-MEL-5
[34] = test system: EKVX
[35] = test system: SNB-75
[36] = test system: MOLT-4
[37] = test system: TK-10
[38] = test system: UACC-62
[39] = test system: OVCAR-4
[40] = test system: HCT-15
[41] = test system: HOP-92
[42] = test system: M14
[43] = test system: ACHN
[44] = test system: NCI-H522
[45] = test system: HOP-62
[46] = test system: SR
[47] = test system: A498
[48] = test system: UO-31
[49] = test system: PC-3
[50] = test system: HCT-116
[51] = test system: U-251
[52] = test system: Hs-578T
[53] = test system: LOX IMVI
[54] = test system: OVCAR-5
[55] = test system: NCI-H460
[56] = test system: MCF7
[57] = test system: HL-60
[58] = test system: SF-539

O=S(=O)(/N=c1/[nH]c2ccccc2n1S(=O)(=O)c1ccccc1)c1ccccc1
GI50 [1]: 41.6 µM (inactive)
GI50 [2]: 35.4 µM (inactive)
GI50 [3]: 30.4 µM (inactive)
GI50 [4]: 34.4 µM (inactive)
GI50 [5]: 44 µM (inactive)
GI50 [6]: 27.9 µM (inactive)
GI50 [7]: 67 µM (inactive)
GI50 [8]: 33.1 µM (inactive)
GI50 [9]: 53.1 µM (inactive)
GI50 [10]: 32.7 µM (inactive)
GI50 [11]: > 100 µM (inactive)
GI50 [12]: 57.7 µM (inactive)
GI50 [13]: 44.9 µM (inactive)
GI50 [14]: 53.5 µM (inactive)
GI50 [15]: 42.4 µM (inactive)
GI50 [16]: 37.2 µM (inactive)
GI50 [17]: 45 µM (inactive)
GI50 [18]: 41.2 µM (inactive)
GI50 [19]: 32.7 µM (inactive)
GI50 [20]: 42.4 µM (inactive)
GI50 [21]: 56.2 µM (inactive)
GI50 [22]: 65.5 µM (inactive)
GI50 [23]: 48 µM (inactive)
GI50 [24]: 65.8 µM (inactive)
GI50 [25]: 50 µM (inactive)
GI50 [26]: 31.3 µM (inactive)
GI50 [27]: 35.4 µM (inactive)
GI50 [28]: 36.8 µM (inactive)
GI50 [29]: 56.8 µM (inactive)
GI50 [30]: 55 µM (inactive)
GI50 [31]: 56.2 µM (inactive)
GI50 [32]: 41.1 µM (inactive)
GI50 [33]: 47.8 µM (inactive)
GI50 [34]: 65.6 µM (inactive)
GI50 [35]: 88.3 µM (inactive)
GI50 [36]: 29.2 µM (inactive)
GI50 [37]: 47.5 µM (inactive)
GI50 [38]: 26.7 µM (inactive)
GI50 [39]: 46.6 µM (inactive)
GI50 [40]: 36.3 µM
GI50 [41]: 38.5 µM (inactive)
GI50 [42]: 25.2 µM (inactive)
GI50 [43]: 26.5 µM (inactive)
GI50 [44]: 50.4 µM (inactive)
GI50 [45]: 56.5 µM (inactive)
GI50 [46]: > 10 µM (inactive)
GI50 [47]: 80.9 µM (inactive)
GI50 [48]: 36.3 µM (inactive)
GI50 [49]: 36.8 µM (inactive)
GI50 [50]: 46.7 µM (inactive)
GI50 [51]: 22.1 µM (inactive)
GI50 [52]: 88.1 µM (inactive)
GI50 [53]: > 100 µM (inactive)
GI50 [54]: 64.9 µM (inactive)

O=C(O)c1cccc(F)c1C(=O)c1ccc2ccccc2c1
GI50 [55]: > 100 µM (inactive)
GI50 [2]: > 100 µM (inactive)
GI50 [56]: > 100 µM (inactive)
GI50 [3]: > 100 µM (inactive)
GI50 [4]: > 100 µM (inactive)
GI50 [5]: > 100 µM (inactive)
GI50 [6]: > 100 µM (inactive)
GI50 [7]: > 100 µM (inactive)
GI50 [8]: > 100 µM (inactive)
GI50 [9]: 3.94 µM (inactive)
GI50 [10]: > 100 µM (inactive)
GI50 [11]: > 100 µM (inactive)
GI50 [13]: > 100 µM (inactive)
GI50 [14]: 2.99 µM (inactive)
GI50 [15]: > 100 µM (inactive)
GI50 [16]: > 100 µM (inactive)
GI50 [17]: > 100 µM (inactive)
GI50 [18]: > 100 µM (inactive)
GI50 [19]: > 100 µM (inactive)
GI50 [20]: > 100 µM (inactive)
GI50 [21]: > 100 µM (inactive)
GI50 [22]: > 100 µM (inactive)
GI50 [23]: > 100 µM (inactive)
GI50 [24]: > 100 µM (inactive)
GI50 [25]: > 100 µM (inactive)
GI50 [26]: > 100 µM (inactive)
GI50 [27]: > 100 µM (inactive)
GI50 [28]: > 100 µM (inactive)
GI50 [29]: > 100 µM (inactive)
GI50 [57]: > 100 µM (inactive)
GI50 [30]: > 100 µM (inactive)
GI50 [31]: > 100 µM (inactive)
GI50 [32]: > 100 µM (inactive)
GI50 [33]: < 0.01 µM (active)
GI50 [34]: > 100 µM (inactive)
GI50 [35]: 73.1 µM (inactive)
GI50 [37]: > 100 µM (inactive)
GI50 [38]: > 100 µM (inactive)
GI50 [39]: > 100 µM (inactive)
GI50 [40]: > 100 µM
GI50 [41]: > 100 µM (inactive)
GI50 [42]: > 100 µM (inactive)
GI50 [43]: > 100 µM (inactive)
GI50 [44]: 62.2 µM (inactive)
GI50 [45]: > 100 µM (inactive)
GI50 [47]: > 100 µM (inactive)
GI50 [58]: > 100 µM (inactive)
GI50 [48]: > 100 µM (inactive)
GI50 [49]: > 100 µM (inactive)
GI50 [50]: > 100 µM (inactive)
GI50 [51]: > 100 µM (inactive)
GI50 [52]: > 100 µM (inactive)
GI50 [53]: > 100 µM (inactive)
GI50 [54]: > 100 µM (inactive)
